From patent publication US10442808B2, “Pyrazolo pyrimidine derivatives and their use as MALT1 inhbitors” (NOVARTIS AG, priority 2014, dated 2019)

Test system: IL2 promoter
Test: Human IL2 promoter reporter gene assay (RGA) in Jurkat cells
Format: cell-based
Description: Human IL2 Promoter Reporter Gene Assay (RGA) in Jurkat Cells
The transfected Jurkat clone K22 290_H23 was propagated in RPMI 1640 supplemented with 10% heat inactivated fetal calf serum, 50 μM 2-mercaptoethanol and 1 mg/ml Geneticin. The cell concentration should not exceed 1×10e6/ml during culturing. The cells should not exceed passage 30. Prior to the assay the cells were washed and prepared to the concentration of 2×10e6 cells/ml.
Compound dilutions were made as 2×-concentrated solutions then diluted ½ by addition to cells. Two hundred and fifty μl of compound dilution and 250 μl of cells were mixed together in wells of a 96-deep well plate. Cells/compounds premix were incubated 30 min at 37° C. and 5% CO2 directly in the deep well plate.
After pre-incubation of cells with compounds, cells were stimulated with anti-CD28 mAb (clone 15E8) at 3 μg/ml+PMA at 1 μg/ml. Both co-stimulants were diluted in culture medium at a 10×-concentrated solution. 10 μl of co-stimulants were pipetted into the white 96-well plates and 100 μl of cell/compound mix was immediately added in duplicates. The cells were stimulated for 5.5 h at 37° C. and 5% CO2.
After cell stimulation, 50 μl of BriteLitePlus reagent (Perkin Elmer) was added to each well and the bioluminescence was measured with a Wallac EnVision reader (Perkin Elmer).

[1] = […], heading: IL2 reporter gene assay IC50, anti-CD28 mAb + PMA stimulation 5.5 h

Structure (SMILES) | IC50 [1] [nM] | IC50 (anti-CD28 mAb + PMA stimulation 5.5 h) [nM]
COCC1(c2c(NC(=O)Nc3ccnc(C(F)(F)F)c3)cnc3cc(C)nn23)CC1 [Example 79, 1-(7-(1-(methoxymethyl)cyclopropyl)-2-methylpyrazolo[1,5-a]pyrimidin-6-yl)-3-(2-(trifluoromethyl)pyridin-4-yl)urea] | 89 | –
CN(C)C(=O)c1c(NC(=O)Nc2cnc(-n3nccn3)c(Cl)c2)cnc2cc(Cl)nn12 [Example 70, 2-chloro-6-(3-(5-chloro-6-(2H-1,2,3-triazol-2-yl)pyridin-3-yl)ureido)-N,N-dimethylpyrazolo[1,5-a]pyrimidine-7-carboxamide] | 63 | –
COCC(OC)c1c(NC(=O)Nc2ccnc(C(F)(F)F)c2)cnc2cc(Cl)nn12 (centres unmarked) [Example 109, 1-(2-chloro-7-(1,2-dimethoxyethyl)pyrazolo[1,5-a]pyrimidin-6-yl)-3-(2-(trifluoromethyl)pyridin-4-yl)urea] | 199 | –
COCC1(c2c(NC(=O)Nc3cnc(-n4nccn4)c(Cl)c3)cnc3cc(Cl)nn23)CC1 [Example 76, 1-(5-chloro-6-(2H-1,2,3-triazol-2-yl)pyridin-3-yl)-3-(2-chloro-7-(1-(methoxymethyl)cyclopropyl)pyrazolo[1,5-a]pyrimidin-6-yl)urea] | 47 | –
CC(C)c1c(NC(=O)Nc2cnc(-c3ccnn3C)c(Cl)c2)cnc2cc(Cl)nn12 [Example 29, 1-(5-chloro-6-(1-methyl-1H-pyrazol-5-yl)pyridin-3-yl)-3-(2-chloro-7-isopropylpyrazolo[1,5-a]pyrimidin-6-yl)urea] | 221 | –
CO[C@H](c1c(NC(=O)Nc2cnc(-n3nccn3)c(Cl)c2)cnc2cc(Cl)nn12)[C@@H](C)OC [Example 98, 1-(5-chloro-6-(2H-1,2,3-triazol-2-yl)pyridin-3-yl)-3-(2-chloro-7-((1R,2R)-1,2-dimethoxypropyl)pyrazolo[1,5-a]pyrimidin-6-yl)urea] | 115 | –
COCC(C)(OC)c1c(NC(=O)Nc2cnc(-n3nccn3)c(Cl)c2)cnc2cc(Cl)nn12 (centres unmarked) [Example 81, 1-(5-chloro-6-(2H-1,2,3-triazol-2-yl)pyridin-3-yl)-3-(2-chloro-7-(1,2-dimethoxypropan-2-yl)pyrazolo[1,5-a]pyrimidin-6-yl)urea] | 157 | –
CC(C)c1c(NC(=O)Nc2cc(C(F)(F)F)ncc2-n2nccn2)cnc2cc(Cl)nn12 [Example 112, 1-(5-(2H-1,2,3-triazol-2-yl)-2-(trifluoromethyl)pyridin-4-yl)-3-(2-chloro-7-isopropylpyrazolo[1,5-a]pyrimidin-6-yl)urea] | 58 | –
COC(c1ccccc1)c1c(NC(=O)Nc2cnc(-n3nccn3)c(Cl)c2)cnc2cc(Cl)nn12 (centres unmarked) [Example 49, 1-(5-chloro-6-(2H-1,2,3-triazol-2-yl)pyridin-3-yl)-3-(2-chloro-7-(methoxy(phenyl)methyl)pyrazolo[1,5-a]pyrimidin-6-yl)urea] | 95 | –
COCCC(OC)c1c(NC(=O)Nc2cnc(-n3nccn3)c(Cl)c2)cnc2cc(Cl)nn12 (centres unmarked) [Example 64, 1-(5-chloro-6-(2H-1,2,3-triazol-2-yl)pyridin-3-yl)-3-(2-chloro-7-(1,3-dimethoxypropyl)pyrazolo[1,5-a]pyrimidin-6-yl)urea] | 32 | –
COCC1(c2c(NC(=O)Nc3cnc(-n4nccn4)c(Cl)c3)cnc3cc(C)nn23)CC1 [Example 78, 1-(5-chloro-6-(2H-1,2,3-triazol-2-yl)pyridin-3-yl)-3-(7-(1-(methoxymethyl)cyclopropyl)-2-methylpyrazolo[1,5-a]pyrimidin-6-yl)urea] | 927 | –
CC(C)OCc1c(NC(=O)Nc2cnc(-n3nccn3)c(Cl)c2)cnc2cc(Cl)nn12 [Example 61, 1-(5-chloro-6-(2H-1,2,3-triazol-2-yl)pyridin-3-yl)-3-(2-chloro-7-(isopropoxymethyl)pyrazolo[1,5-a]pyrimidin-6-yl)urea] | 14 | –
Cc1cnn(-c2ncc(NC(=O)Nc3cnc4cc(Cl)nn4c3C(C)C)cc2Cl)n1 [Example 22, 1-(5-chloro-6-(4-methyl-2H-1,2,3-triazol-2-yl)pyridin-3-yl)-3-(2-chloro-7-isopropylpyrazolo[1,5-a]pyrimidin-6-yl)urea] | 214 | –
Cc1cc2ncc(NC(=O)Nc3cnc(-n4nccn4)c(Cl)c3)c(C3(C)CCCO3)n2n1 (centres unmarked) [Example 104, 1-(5-chloro-6-(2H-1,2,3-triazol-2-yl)pyridin-3-yl)-3-(2-methyl-7-(2-methyltetrahydrofuran-2-yl)pyrazolo[1,5-a]pyrimidin-6-yl)urea] | 134 | –
O=C(Nc1cnc(-n2nccn2)c(C(F)(F)F)c1)Nc1cnc2cc(Cl)nn2c1C1CCCO1 (centres unmarked) [Example 54, 1-(6-(2H-1,2,3-triazol-2-yl)-5-(trifluoromethyl)pyridin-3-yl)-3-(2-chloro-7-(tetrahydrofuran-2-yl)pyrazolo[1,5-a]pyrimidin-6-yl)urea] | 266 | –
CC(C)c1c(NC(=O)Nc2cnc(N3CCCS3(=O)=O)c(C(F)(F)F)c2)cnc2cc(Cl)nn12 [Example 27, 1-(2-chloro-7-isopropylpyrazolo[1,5-a]pyrimidin-6-yl)-3-(6-(1,1-dioxidoisothiazolidin-2-yl)-5-(trifluoromethyl)pyridin-3-yl)urea] | 507 | –
CC(C)(c1c(NC(=O)Nc2ccnc(C(F)(F)F)c2)cnc2cc(Cl)nn12)C1CCOCC1 [Example 80, 1-(2-chloro-7-(2-(tetrahydro-2H-pyran-4-yl)propan-2-yl)pyrazolo[1,5-a]pyrimidin-6-yl)-3-(2-(trifluoromethyl)pyridin-4-yl)urea] | 46 | –
CO[C@@H](C)c1c(NC(=O)Nc2cnc(-n3nccn3)c(C(F)F)c2)cnc2cc(Cl)nn12 [Example 89, (S)-1-(2-chloro-7-(1-methoxyethyl)pyrazolo [1,5-a]pyrimidin-6-yl)-3-(5-(difluoromethyl)-6-(2H-1,2,3-triazol-2-yl)pyridin-3-yl)urea] | 25 | –
COc1ncc(NC(=O)Nc2cnc3cc(Cl)nn3c2C(C)C)cc1Cl [Example 18, 1-(5-chloro-6-methoxypyridin-3-yl)-3-(2-chloro-7-isopropylpyrazolo[1,5-a]pyrimidin-6-yl)urea] | 245 | –
CO[C@@H](C)c1c(NC(=O)Nc2cc(C(F)(F)F)cn(C)c2=O)cnc2cc(Cl)nn12 [Example 3, (S)-1-(2-chloro-7-(1-methoxyethyl)pyrazolo[1,5-a]pyrimidin-6-yl)-3-(1-methyl-2-oxo-5-(trifluoromethyl)-1,2-dihydropyridin-3-yl)urea] | – | 131
CO[C@@H](C)c1c(NC(=O)Nc2cnc(-n3nccn3)c(Cl)c2)cnc2cc(F)nn12 [Example 95, (S)-1-(5-chloro-6-(2H-1,2,3-triazol-2-yl)pyridin-3-yl)-3-(2-fluoro-7-(1-methoxyethyl)pyrazolo [1,5-a]pyrimidin-6-yl)urea] | 60 | –
CO[C@H](C)CO[C@@H](C)c1c(NC(=O)Nc2cnc(-n3nccn3)c(Cl)c2)cnc2cc(Cl)nn12 [Example 85, 1-(5-chloro-6-(2H-1,2,3-triazol-2-yl)pyridin-3-yl)-3-(2-chloro-7-((S)-1-((R)-2 methoxypropoxy)ethyl)pyrazolo[1,5-a]pyrimidin-6-yl)urea] | 68 | –
CO[C@@H](C)c1c(NC(=O)Nc2ccnc(C#N)c2)cnc2cc(Cl)nn12 [Example 105, (S)-1-(2-chloro-7-(1-methoxyelhyl)pyrazolo[1,5-a]pyrimidin-6-yl)-3-(2-cyanopyridin-4-yl)urea] | 112 | –
